# Data: publication PMC10648942, “Safety and pharmacokinetics of SPR206 in subjects with varying degrees of renal impairment” (Antimicrobial Agents and Chemotherapy, 2023)
# Like-named read-outs stand apart in the source and are kept apart here. Bridge positions count the residues as written; N and C are the ends. Square brackets hold non-standard residues; d marks the D form. Peptide text beside a SMILES is read from it. * marks the point of attachment. X1 = NC[C@@H](CC(=O)*)c1cccc(Cl)c1; Dab = NCC[C@H](N)C(=O)O; Dap = NC[C@H](N)C(=O)O
# Key:
# [1] = clinical; design: species or system human; AUC0–∞ LS GMR vs healthy subjects, range / AUC0–last LS GMR vs healthy subjects, range / AUC0−8, LS GMR (90% CI): unit not given beside the values; settings: in vivo
# Excerpt: This was a Phase 1, open-label study to assess the safety, tolerability, and PK of a single 100-mg IV dose of SPR206 administered to healthy adults with normal renal function and those with varying degrees of RI including subjects with ESRD on HD. Subjects were screened within 28 days prior to dosing. Study drug administration occurred on day 1 for Cohorts 1–4 (normal renal function, mild RI, moderate RI, and severe RI) and on days 1 and 5 for Cohort 5 (ESRD on HD). Subjects remained confined to the clinical study unit from day −1 (1 day prior to study drug administration) until completion of the scheduled study procedures at the end of confinement on day 4 (Cohorts 1–4) or on day 7 (Cohort 5). A follow-up safety visit occurred 7 to 14 calendar days after the last dose for all subjects.
# On the morning of day 1, subjects in Cohorts 1–4 received a single 100-mg IV dose of […] infused over 1 h. Subjects in Cohort 5 received a single IV dose of SPR206 within 2 h (±1 h) after completion of regularly scheduled HD on day 1 (Period 1) and a second dose approximately 1 h prior to their regularly scheduled HD on day 5 (Period 2). Details of the HD procedure are provided in the Supplement.
# (§1) Subjects in Cohorts 1–4 had serial blood samples collected to determine plasma SPR206 concentrations at pre-dose (0) and 0.5, 1, 1.25, 1.5, 2, 2.5, 3, 5, 8, 10, 12, 18, 24, and 36 h post-dose. Total voided urine was collected over a 2-h interval from −2 to 0 h (pre-dose) and at 0–4, 4–8, 8–12, 12–24, and 24–36 h post-dose. For subjects in Cohort 5, blood samples were collected on dosing days 1 and 5 pre-dose (0 h) and 0.5, 1, 1.25, 1.5, 2, 2.5, 3, 5, 8, 10, 12, 18, 24, and 36 h after dosing. On day 5 (Period 2), the 1-h post-dose sample was collected immediately prior to initiation of dialysis, and the 5-h post-dose sample was collected 10 min prior to the end of dialysis. The 36-h post-dose samples on days 3 and 7 were collected prior to the next dialysis session if scheduled on the same day. In Period 2, blood samples were collected from both the inflow (arterial) and outflow (venous) lines pre-dialysis and at approximately 1, 2, 3, and 4 h after initiation of HD on day 5. If the HD session was shorter or longer than 4 h after the start of HD, a final sample was collected at the end of dialysis. Plasma and urine samples were assayed for SPR206 using a validated liquid chromatography tandem mass spectrometry method (QPS, LLC, Newark, DE, USA). For plasma, the assay range was 50 to 50,000 ng/mL, and for urine, the range was 100 to 50,000 ng/mL. In plasma, the intraday precision (% coefficient of variation) ranged from 1.3% to 7.7%, and the accuracy (% relative error) ranged from 1.6% to 6.0%. In urine, the intraday precision (% coefficient of variation) ranged from 1.7% to 7.5%, and the accuracy (% relative error) ranged from −4.8% to 7.3%. Additional details are provided in the Supplement.
# For all cohorts, the following PK parameters were calculated using noncompartmental methods based on plasma SPR206 concentrations: C max, T max, AUC0−last, AUC0−8, AUC0−∞, terminal elimination half-life (t 1/2), CL, and volume of distribution at the terminal phase (V Z). For Cohort 5, additional parameters were extraction ratio (ER), estimated hemodialysis clearance, and amount of the dose removed by hemodialysis. The ER was calculated as 100 × [(CA − CV)/CA], where CA and CV were predialyzer and postdialyzer paired drug concentrations at the arterial and venous sites. SPR206 clearance during HD (CLHD) was calculated using the following equation: CLHD = Q × ER, where Q was the known blood flow through the dialyzer. The amount of SPR206 removed by dialysis (XHD) was estimated by multiplying the AUC during dialysis [i.e., AUC from the beginning of dialysis to end of dialysis (AUCon–HD)] by CLHD: XHD = AUCon–HD × CLHD.
# Mean and individual plasma concentration-time curves were tabulated for each cohort (and for Cohort 5 subjects by period). […]
# [2] = design: species or system human; settings: in vivo
# Method: as §1, with “Supplement. Urine PK parameters included Aet, Ae%, Aeu, CLR, Fe, and Feu.” for “Supplement.”
# [3] = Safety/tolerability (TEAEs, laboratory, ECG), Phase 1 renal impairment study; assay type: in vivo, human
# [4] = design: species or system human; AUC0-8 vs eGFR regression, Coefficient (95% CI) / AUC0-last vs eGFR regression, Intercept / AUC0-last vs eGFR regression, Coefficient (95% CI) / AUC0-∞ vs eGFR regression, Intercept / AUC0-∞ vs eGFR regression, Coefficient (95% CI) / AUC0-8 vs eGFR regression, Intercept: unit not given beside the values; settings: in vivo
# Method: To model the relationship between renal function and PK parameters, a linear regression analysis was performed using log-transformed values of AUC0–8, AUC0–last, AUC0–∞, C max, and CL, which were dependent variables. The independent variable to predict the PK parameters was eGFR after adjusting for baseline covariates (age, gender, race, and body weight). Parameter estimates, standard errors, confidence intervals (CIs), and P-values were presented.
# [5] = human, in vivo, cited from earlier work
# [6] = human, in vivo; cited from earlier work
# [7] = human; cited from earlier work
# [8] = system: kidney cell; settings: cited from earlier work
# [9] = rat, in vivo; cited from earlier work
# [10] = system: Acinetobacter species; design: method as in doi:10.1093/ofid/ofac492.1306, doi:10.1093/ofid/ofac492.1307; settings: Acinetobacter species clinical isolates; cited from earlier work
# [11] = system: P. aeruginosa; design: method as in doi:10.1093/ofid/ofac492.1306, doi:10.1093/ofid/ofac492.1307; settings: P. aeruginosa clinical isolates; cited from earlier work
# [12] = system: Enterobacterales; design: method as in doi:10.1093/ofid/ofac492.1306, doi:10.1093/ofid/ofac492.1307; settings: Enterobacterales clinical isolates; cited from earlier work
# [13] = cited from earlier work
molecule,measurement,setting,value
CC(C)C[C@@H]1NC(=O)[C@@H](Cc2ccccc2)NC(=O)[C@H](CCN)NC(=O)[C@@H](NC(=O)[C@H](CN)NC(=O)[C@@H](NC(=O)C[C@H](CN)c2cccc(Cl)c2)[C@@H](C)O)CCNC(=O)[C@H]([C@@H](C)O)NC(=O)[C@H](CCN)NC(=O)[C@H](CCN)NC1=O [SPR206] (X1-T[Dap][Dab][Dab][dF]L[Dab][Dab]T; lactam 3-C (inferred)),AUC0–last greater than healthy subjects,[1]; human,131%
same,CL lower than healthy subjects,[1]; human,75%
same,time of peak plasma concentration (end of infusion),[1]; human,1 h
same,AUC(0-t),"[1]; human, AUC0–8, LS GM (SE)",21800 ng·h/mL
same,AUC(0-t),"[1]; human, AUC0−8, LS GM (SE)",17300 ng·h/mL
same,Cmax,"[1]; human, C max, LS GM (SE)",5900 ng/mL
same,Cmax,"[1]; human, iv, C max, geometric mean (CV %)",5900 ng/mL
same,Cmax,"[1]; human, mean peak concentration (C max)",~6500 ng/mL
same,"AUC0–last LS GMR vs healthy subjects, range",[1],1.39-3.39
same,"AUC0–∞ LS GMR vs healthy subjects, range",[1],1.39-4.09
same,"AUC0−8, LS GMR (90% CI)",[1],"0.59 (0.52, 0.67)"
same,"C max LS GMR vs healthy subjects, range",[1],1.07-1.14
same,"CL LS GMR vs healthy subjects, range",[1],0.71-0.24
same,mean AUC0–last greater in subjects with RI vs healthy subjects,[1],39-239%
same,"mean AUC0–last lower, dialyzed vs nondialyzed",[1],51%
same,mean plasma CL lower vs healthy subjects,[1],29-76%
same,mean CLR as % of total CL,[2]; human,24.6%
same,time up to which urine concentrations were quantifiable,[2],up to 36 h
same,time within which SPR206 was excreted in urine,[2],≤ 12 h
same,"deaths, treatment-related serious AEs, TEAEs leading to study discontinuation",[3]; all cohorts,"No deaths, treatment-related serious AEs, or TEAEs leading to study discontinuation were reported"
same,"TEAE headache, overall incidence",[3]; in vivo,13.5%
same,"TEAE paresthesia, overall incidence",[3]; in vivo,8.1%
same,"clinical laboratory results, ECG findings, physical examination",[3]; in vivo,No clinically significant abnormalities
same,relation of the two serious (severe) TEAEs to study drug,[3]; in vivo,unrelated to study drug
same,serum creatinine levels from screening through follow-up,[3]; in vivo,remained stable
same,subjects whose TEAEs were mild,[3]; in vivo,19 (51.4%) subjects (%)
same,subjects with at least one TEAE,[3]; in vivo,23 (62.2%) subjects (%)
same,"subjects with moderate TEAEs (infusion site phlebitis, drug hypersensitivity) leading to study drug discontinuation",[3]; in vivo,5.4%
same,subjects with treatment-related AEs,[3]; in vivo,13 (35.1%) subjects (%)
same,"treatment-related adverse events, severity",[3]; in vivo,Mostly mild but no serious treatment-related adverse events were reported
same,"TEAE oral paresthesia, overall incidence","[3]; in vivo, po",8.1%
same,"AUC0-8 vs eGFR regression, Coefficient (95% CI)",[4],"−0.0063 (−0.0083, –0.0044)"
same,"AUC0-8 vs eGFR regression, Intercept",[4],3.5
same,"AUC0-last vs eGFR regression, Coefficient (95% CI)",[4],"−0.0147 (−0.0168, –0.0125)"
same,"AUC0-last vs eGFR regression, Intercept",[4],4.5
same,"AUC0-∞ vs eGFR regression, Coefficient (95% CI)",[4],"−0.0161 (−0.0190, –0.0131)"
same,"AUC0-∞ vs eGFR regression, Intercept",[4],4.6
same,"C max vs eGFR regression, Coefficient (95% CI)",[4],"−0.0018 (−0.0040, 0.0005)"
same,"C max vs eGFR regression, Intercept",[4],2.0
same,"CL vs eGFR regression, Coefficient (95% CI)",[4],"0.0172 (0.0148, 0.0196)"
same,"CL vs eGFR regression, Intercept",[4],0.1
same,AUC0–∞,[5]; iv,20400 ng·h/mL
same,C max,[5]; iv,5300 ng/mL
same,total CL,[5]; iv,5.0 L/h
same,pharmacokinetic profile in a Phase 1 study,[5],dose-proportional
same,tolerability in a Phase 1 study,[5],well tolerated
same,AUC0–8,[6],20100 ng·h/mL
same,C max,[6],4400 ng/mL
same,Protein binding,[7],≤ 12.8%
same,kidney cell cytotoxicity compared with polymyxin B,[8],lower kidney cell cytotoxicity
same,kidney exposure compared with polymyxin B,[9],lower kidney exposure
colistin,MIC90,[10],1 µg/mL
same,MIC90,[11],1 µg/mL
same,MIC90,[12],0.5 µg/mL
same,route of elimination,[13]; in vivo,eliminated primarily by non-renal mechanisms
colistin methanesulfonate,route of elimination,[13]; in vivo,eliminated predominantly by renal excretion
polymyxin B,route of elimination,[13],eliminated primarily by non-renal mechanisms
